Laboratory results published in ChEMBL document CHEMBL1147864, “Synthesis of new sugar derivatives from Stachys sieboldi Miq and antibacterial evaluation against Mycobacterium tuberculosis, Mycobacterium avium, and Staphylococcus aureus” (2007).
Values after ≈ are worked out from the molar mass of the structure shown.

Assays:
Format in all cases: functional
Settings in all cases: 336 h
[1] = tested on: Mycobacterium tuberculosis; assay: Antibacterial activity against Mycobacterium tuberculosis H37Rv after 2 weeks by broth dilution method
[2] = tested on: Staphylococcus aureus; assay: Antibacterial activity against Staphylococcus aureus after 2 weeks by broth dilution method
[3] = tested on: Mycobacterium avium; assay: Antibacterial activity against Mycobacterium avium 724S after 2 weeks by broth dilution method
[4] = tested on: Staphylococcus aureus; assay: Antibacterial activity against methicillin-resistant Staphylococcus aureus 873 after 2 weeks by broth dilution method
[5] = tested on: Staphylococcus aureus; assay: Antibacterial activity against methicillin-resistant Staphylococcus aureus 906 after 2 weeks by broth dilution method
[6] = tested on: Staphylococcus aureus; assay: Antibacterial activity against methicillin-resistant Staphylococcus aureus 908 after 2 weeks by broth dilution method
[7] = tested on: Staphylococcus aureus; assay: Antibacterial activity against methicillin-resistant Staphylococcus aureus 910 after 2 weeks by broth dilution method
[8] = tested on: Mycobacterium tuberculosis; assay: Antimycobacterial activity against Mycobacterium tuberculosis A-1-1 after 2 weeks by broth dilution method
[9] = tested on: Mycobacterium tuberculosis; assay: Antimycobacterial activity against Mycobacterium tuberculosis A-1-2 after 2 weeks by broth dilution method
[10] = tested on: Mycobacterium tuberculosis; assay: Antimycobacterial activity against Mycobacterium tuberculosis A-1-3 after 2 weeks by broth dilution method
[11] = tested on: Mycobacterium tuberculosis; assay: Antimycobacterial activity against Mycobacterium tuberculosis A-2-5 after 2 weeks by broth dilution method
[12] = tested on: Mycobacterium tuberculosis; assay: Antimycobacterial activity against Mycobacterium tuberculosis A-3-1 after 2 weeks by broth dilution method
[13] = tested on: Mycobacterium tuberculosis; assay: Antimycobacterial activity against Mycobacterium tuberculosis A-3-2 after 2 weeks by broth dilution method
[14] = tested on: Mycobacterium tuberculosis; assay: Antimycobacterial activity against Mycobacterium tuberculosis A-3-5 after 2 weeks by broth dilution method
[15] = tested on: Mycobacterium tuberculosis; assay: Antimycobacterial activity against Mycobacterium tuberculosis A-3-6 after 2 weeks by broth dilution method
[16] = tested on: Mycobacterium tuberculosis; assay: Antimycobacterial activity against Mycobacterium tuberculosis A-3-9 after 2 weeks by broth dilution method
[17] = tested on: Mycobacterium tuberculosis; assay: Antimycobacterial activity against Mycobacterium tuberculosis A-3-11 after 2 weeks by broth dilution method
[18] = tested on: Mycobacterium tuberculosis; assay: Antimycobacterial activity against Mycobacterium tuberculosis A-3-12 after 2 weeks by broth dilution method
[19] = tested on: Mycobacterium tuberculosis; assay: Antimycobacterial activity against Mycobacterium tuberculosis A-3-15 after 2 weeks by broth dilution method
[20] = tested on: Mycobacterium tuberculosis; assay: Antimycobacterial activity against Mycobacterium tuberculosis A-3-16 after 2 weeks by broth dilution method
[21] = tested on: Mycobacterium tuberculosis; assay: Antimycobacterial activity against Mycobacterium tuberculosis A-3-17 after 2 weeks by broth dilution method
[22] = tested on: Mycobacterium tuberculosis; assay: Antimycobacterial activity against Mycobacterium tuberculosis A-3-19 after 2 weeks by broth dilution method
[23] = tested on: Mycobacterium tuberculosis; assay: Antimycobacterial activity against Mycobacterium tuberculosis A-3-20 after 2 weeks by broth dilution method
[24] = tested on: Mycobacterium tuberculosis; assay: Antimycobacterial activity against Mycobacterium tuberculosis A-3-21 after 2 weeks by broth dilution method
[25] = tested on: Mycobacterium tuberculosis; assay: Antimycobacterial activity against Mycobacterium tuberculosis A-3-22 after 2 weeks by broth dilution method

CCCO[C@@H]1O[C@H](CO[C@H]2O[C@H](CO[C@H]3O[C@H](COC(C)=O)[C@H](OC(C)=O)[C@H](OC(C)=O)[C@H]3OC(C)=O)[C@H](OC(C)=O)[C@H](OC(C)=O)[C@H]2OC(C)=O)[C@@H](OC(C)=O)[C@H](OC(C)=O)[C@H]1OC(C)=O
MIC [1]: > 800 µg/mL
MIC [2]: > 800 µg/mL

CC[C@@H](CO)NCCN[C@@H](CC)CO [ETHAMBUTOL]
MIC [1]: 1.25 µg/mL (≈ 6.12 µM)
MIC [3]: 3 µg/mL (≈ 14.7 µM)
MIC [2]: > 100 µg/mL
MIC [4]: > 100 µg/mL
MIC [5]: > 100 µg/mL
MIC ([6]; read-out: MIC): > 100 µg/mL
MIC [7]: > 100 µg/mL

CC(=O)OC[C@H]1O[C@H](OC[C@H]2O[C@H](OC[C@H]3O[C@@H](OC(C)C)[C@H](OC(C)=O)[C@@H](OC(C)=O)[C@@H]3OC(C)=O)[C@H](OC(C)=O)[C@@H](OC(C)=O)[C@H]2OC(C)=O)[C@H](OC(C)=O)[C@@H](OC(C)=O)[C@H]1OC(C)=O
MIC [1]: > 800 µg/mL
MIC [2]: > 800 µg/mL

OC[C@H](O)[C@@H](O)[C@H](O)[C@H](O)CO[C@H]1O[C@H](CO[C@H]2O[C@H](CO)[C@H](O)[C@H](O)[C@H]2O)[C@H](O)[C@H](O)[C@H]1O
MIC [1]: > 800 µg/mL
MIC [2]: > 800 µg/mL

CCO[C@@H]1O[C@H](CO[C@H]2O[C@H](CO[C@H]3O[C@H](COC(C)=O)[C@H](OC(C)=O)[C@H](OC(C)=O)[C@H]3OC(C)=O)[C@H](OC(C)=O)[C@H](OC(C)=O)[C@H]2OC(C)=O)[C@@H](OC(C)=O)[C@H](OC(C)=O)[C@H]1OC(C)=O
MIC [1]: > 800 µg/mL
MIC [2]: > 800 µg/mL

C=CCO[C@H]1O[C@H](CO[C@H]2O[C@H](CO[C@H]3O[C@H](COC(C)=O)[C@H](OC(C)=O)[C@H](OC(C)=O)[C@H]3OC(C)=O)[C@H](OC(C)=O)[C@H](OC(C)=O)[C@H]2OC(C)=O)[C@@H](OC(C)=O)[C@H](OC(C)=O)[C@H]1OC(C)=O
MIC [1]: > 800 µg/mL
MIC [2]: > 800 µg/mL

C=CCN=C=S [ALLYL ISOTHIOCYANATE]
MIC [1]: > 800 µg/mL
MIC [2]: > 800 µg/mL

CC(=O)OC[C@H](OC(C)=O)[C@@H](OC(C)=O)[C@H](OC(C)=O)[C@@H](CO[C@H]1O[C@H](CO[C@H]2O[C@H](COC(C)=O)[C@H](OC(C)=O)[C@H](OC(C)=O)[C@H]2OC(C)=O)[C@H](OC(C)=O)[C@H](OC(C)=O)[C@H]1OC(C)=O)OC(C)=O
MIC [1]: > 800 µg/mL
MIC [2]: > 800 µg/mL

CO[C@H]1/C=C/O[C@@]2(C)Oc3c(C)c(O)c4c(O)c(c(/C=N/N5CCN(C)CC5)c(O)c4c3C2=O)NC(=O)/C(C)=C\C=C\[C@H](C)[C@H](O)[C@@H](C)[C@@H](O)[C@@H](C)[C@H](OC(C)=O)[C@@H]1C [RIFAMPIN]
MIC [1]: > 0.008 µg/mL
MIC [3]: 0.004 µg/mL (≈ 0.00486 µM)
MIC [2]: 0.004 µg/mL (≈ 0.00486 µM)
MIC [4]: 0.004 µg/mL (≈ 0.00486 µM)
MIC [5]: 0.004 µg/mL (≈ 0.00486 µM)
MIC [6]: 0.004 µg/mL (≈ 0.00486 µM)
MIC [7]: 0.004 µg/mL (≈ 0.00486 µM)

C=CCO [ALLYL ALCOHOL]
MIC [1]: > 400 µg/mL
MIC [2]: > 400 µg/mL

NNC(=O)c1ccncc1 [ISONIAZID]
MIC [1]: 0.075 µg/mL (≈ 0.547 µM)
MIC [3]: 12.5 µg/mL (≈ 91.1 µM)
MIC [2]: > 100 µg/mL
MIC [4]: > 100 µg/mL
MIC ([6]; read-out: MIC): > 100 µg/mL
MIC [7]: > 100 µg/mL

C#CCO[C@@H]1O[C@H](CO[C@H]2O[C@H](CO[C@H]3O[C@H](COC(C)=O)[C@H](OC(C)=O)[C@H](OC(C)=O)[C@H]3OC(C)=O)[C@H](OC(C)=O)[C@H](OC(C)=O)[C@H]2OC(C)=O)[C@@H](OC(C)=O)[C@H](OC(C)=O)[C@H]1OC(C)=O
MIC [1]: > 800 µg/mL
MIC [2]: > 800 µg/mL

C/C=C/CO[C@@H]1O[C@H](CO[C@H]2O[C@H](CO[C@H]3O[C@H](COC(C)=O)[C@H](OC(C)=O)[C@H](OC(C)=O)[C@H]3OC(C)=O)[C@H](OC(C)=O)[C@H](OC(C)=O)[C@H]2OC(C)=O)[C@@H](OC(C)=O)[C@H](OC(C)=O)[C@H]1OC(C)=O
MIC [1]: > 400 µg/mL
MIC [2]: > 400 µg/mL

CN[C@@H]1[C@H](O[C@H]2[C@H](O[C@H]3[C@H](O)[C@@H](O)[C@H](N=C(N)N)[C@@H](O)[C@@H]3N=C(N)N)O[C@@H](C)[C@]2(O)C=O)O[C@@H](CO)[C@H](O)[C@H]1O (stereo in doubt) [STREPTOMYCIN]
MIC [1]: 0.2 µg/mL (≈ 0.344 µM)
MIC [3]: 0.4 µg/mL (≈ 0.688 µM)
MIC [2]: 100 µg/mL (≈ 172 µM)
MIC [4]: > 100 µg/mL
MIC [5]: 100 µg/mL (≈ 172 µM)

C=CCO[C@@H]1O[C@H](CO[C@H]2O[C@H](CO[C@H]3O[C@H](CO)[C@H](O)[C@H](O)[C@H]3O)[C@H](O)[C@H](O)[C@H]2O)[C@@H](O)[C@H](O)[C@H]1O
MIC [1]: > 100 µg/mL
MIC [3]: > 100 µg/mL
MIC [2]: > 100 µg/mL
MIC [4]: 100 µg/mL (≈ 184 µM)
MIC [5]: > 100 µg/mL
MIC ([6]; read-out: MIC): > 100 µg/mL
MIC [7]: > 100 µg/mL

CCCCO[C@@H]1O[C@H](CO[C@H]2O[C@H](CO[C@H]3O[C@H](COC(C)=O)[C@H](OC(C)=O)[C@H](OC(C)=O)[C@H]3OC(C)=O)[C@H](OC(C)=O)[C@H](OC(C)=O)[C@H]2OC(C)=O)[C@@H](OC(C)=O)[C@H](OC(C)=O)[C@H]1OC(C)=O
MIC [1]: > 800 µg/mL
MIC [2]: > 800 µg/mL

CO[C@@H]1O[C@H](CO[C@H]2O[C@H](CO[C@H]3O[C@H](COC(C)=O)[C@H](OC(C)=O)[C@H](OC(C)=O)[C@H]3OC(C)=O)[C@H](OC(C)=O)[C@H](OC(C)=O)[C@H]2OC(C)=O)[C@@H](OC(C)=O)[C@H](OC(C)=O)[C@H]1OC(C)=O
MIC [1]: > 800 µg/mL
MIC [2]: > 800 µg/mL

C=CCO[C@@H]1O[C@H](CO[C@H]2O[C@H](CO[C@H]3O[C@H](COC(C)=O)[C@H](OC(C)=O)[C@H](OC(C)=O)[C@H]3OC(C)=O)[C@H](OC(C)=O)[C@H](OC(C)=O)[C@H]2OC(C)=O)[C@@H](OC(C)=O)[C@H](OC(C)=O)[C@H]1OC(C)=O
MIC [1]: 3.13 µg/mL (≈ 3.24 µM)
MIC [3]: 3.13 µg/mL (≈ 3.24 µM)
MIC [2]: 3.13 µg/mL (≈ 3.24 µM)
MIC [4]: 3.77 µg/mL (≈ 3.91 µM)
MIC [5]: 15.1 µg/mL (≈ 15.6 µM)
MIC ([6]; read-out: MIC): 7.54 µg/mL (≈ 7.81 µM)
MIC [7]: 15.1 µg/mL (≈ 15.6 µM)
MIC [8]: 6.25 µg/mL (≈ 6.48 µM)
MIC [9]: 6.25 µg/mL (≈ 6.48 µM)
MIC [10]: 6.25 µg/mL (≈ 6.48 µM)
MIC [11]: 12.5 µg/mL (≈ 13 µM)
MIC [12]: 25 µg/mL (≈ 25.9 µM)
MIC [13]: 25 µg/mL (≈ 25.9 µM)
MIC [14]: 6.25 µg/mL (≈ 6.48 µM)
MIC [15]: 6.25 µg/mL (≈ 6.48 µM)
MIC [16]: 3.13 µg/mL (≈ 3.24 µM)
MIC [17]: 3.13 µg/mL (≈ 3.24 µM)
MIC [18]: 6.25 µg/mL (≈ 6.48 µM)
MIC [19]: 3.13 µg/mL (≈ 3.24 µM)
MIC [20]: 6.25 µg/mL (≈ 6.48 µM)
MIC [21]: 3.13 µg/mL (≈ 3.24 µM)
MIC [22]: 3.13 µg/mL (≈ 3.24 µM)
MIC [23]: 6.25 µg/mL (≈ 6.48 µM)
MIC [24]: 6.25 µg/mL (≈ 6.48 µM)
MIC [25]: 3.13 µg/mL (≈ 3.24 µM)
